Experimental data as given in patent US6362360B1, “3-aryl-2-hydroxypropionic acid derivative III” (AstraZeneca AB, priority 1998, dated 2002).

Test system: obese diabetic mice of the Umeå ob/ob strain
Assay: Biological activity in obese diabetic ob/ob mice (plasma glucose, insulin, triglycerides; weight gain)
Format: in vivo
Description: The biological activity of the compound of the invention was tested in obese diabetic mice of the Umeå ob/ob strain. Groups of mice received the test compound by gavage once daily for 7 days. On the last day of the experiment the animals were anesthetized 2 h after dose in a non-fed state and blood was collected from an incised artery. Plasma was analyzed for concentration of glucose, insulin and triglycerides. A group of untreated obese diabetic mice of the same age served as control. The weights of the mice were measured before and after the experiment and the obtained weight gains were compared to the weight gains of the control animals. The individual values for glucose, insulin and triglyceride levels of the mice from the test group were expressed as the percentage rage of the corresponding values from the control group. The desired “therapeutic effect” was calculated as the average percent reduction of the three variables glucose, insulin and triglycerides below the levels in the control animals. The therapeutic effect of the tested compounds according to the invention was compared to the same effect in the prior art compound troglitazone, administrered by gavage in the oral dose of 100 μmol/kg for 7 days.

CCO[C@@H](Cc1ccc(OCCc2ccc(NC(=O)OC(C)(C)C)cc2)cc1)C(=O)O [compound of the invention, 3-{4-[2-(4-tert-Butoxycarbonylaminophenyl)ethoxy]phenyl}-(S)-2-ethoxy propanoic acid]
therapeutic effect (average percent reduction of glucose, insulin and triglycerides below the levels in the control animals) (gavage once daily for 7 days, compared to troglitazone in the same oral dose (100 μmol/kg for 7 days)): superior effects
weight gain (weights measured before and after the 7-day experiment, compared to control animals): without undesirable weight gain
